Experimental data reported in patent US4568689A, “Pharmaceutical preparation for the treatment of hypertensive disease and myocardial infarction” (priority 1983, dated 1986).

Columns and labels:
Assay type in all cases: in vivo
[1] = system: arterial pressure of rats with spontaneous hypertension; assay: hypotensive effect, intraperitoneal, spontaneously hypertensive rats
Procedure: The study of the hypotensive effect was carried out in experiments on spontaneously hypertensive male rats of the Akamoto-Aoki line aged 20-25 weeks. The prior art preparation-nifedipine was used for the purpose of comparison. The measurement of the arterial pressure was effected on the tail vein of the rats by the indirect method. The animals were divided into groups (10 in each) and trained for two weeks with the view to ensure their adaptation to the unit for the measurement of the arterial pressure. The level of the arterial pressure prior to administration of the test preparations was measured three times: two days, one day and directly prior to administration of the test preparations. The preparation was administered in the form of a 2.5% aqueous solution, nifedipine--in the form of a 2.5% suspension in Twin-80 intraperitoneally. […]

[2] = system: arterial pressure of spontaneously hypertensive rats; assay: effect of the oral form on arterial pressure, spontaneously hypertensive rats
Procedure: Also studied was the efficiency of the oral form of the preparation according to the present invention. […] The efficiency was studied within the range of doses from 50 to 100 mg/kg.

[3] = system: hemodynamic effects of acetylcholine, neoepinephrine, noradrenaline, histamine and angiotensin; assay: influence on hemodynamic effects of acetylcholine, noradrenaline, neoepinephrine, angiotensin and histamine in narcotized cats
Procedure: The effect of the pharmaceutical preparation according to the present invention on the arterial pressure and vegetative responses was studied in acute experiments on cats with a mass of 2.8-4.0 kg narcotized with α-glucochloralose (90 mg/kg) and urethane (100 mg/kg, intraperitoneally). The breathing, arterial pressure in the common carotid artery and electrocardiogram of the second standard lead were recorded.
The influence of the preparation according to the present invention on hemodynamic effects of acetylcholine (0.1 μg/kg) neoepinephrine (0.2 μg/kg), noradrenaline (1 μg/kg), histamine (1.5 μg/kg) and angiotensin (0.1 μg/kg) was also studied. The preparation of this invention was intravenously administered in the form of a 2.5% solution in doses of 0.5 to 10 mg/kg. The peripheral part of the vagus nerve was irritated by supromaximum pulses with the frequency of 30 Hz and duration of 0.1 ms.

[4] = 25 mg/kg intraperitoneally, 30 minutes
[5] = 25 mg/kg intraperitoneally, 1 hour
[6] = 25 mg/kg intraperitoneally, 2 hours
[7] = 25 mg/kg intraperitoneally, 4 hours
[8] = 50 mg/kg intraperitoneal, 30 minutes
[9] = 50 mg/kg intraperitoneally, 30 minutes
[10] = 50 mg/kg intraperitoneally, 1 hour
[11] = 50 mg/kg intraperitoneally, 2 hours
[12] = 50 mg/kg intraperitoneally, 4 hours
[13] = 50 mg/kg intraperitoneally, 24 hours
[14] = 24 hours after a single-time administration

SMILES: C[N+]1(C)CC(CC(=O)[O-])C(=O)N1 (centres unmarked) [Preparation of this invention, (1,1-dimethyl-3-oxopyrazolin-1-io-4-yl)acetate]
- Variation of arterial pressure, diastolic [1, 4]: -1 % of the initial
- Variation of arterial pressure, systolic [1, 4]: -3 % of the initial
- Variation of arterial pressure, diastolic [1, 5]: -7 % of the initial
- Variation of arterial pressure, systolic [1, 5]: -5 % of the initial
- Variation of arterial pressure, diastolic [1, 6]: -19 % of the initial
- Variation of arterial pressure, systolic [1, 6]: -3 % of the initial
- Variation of arterial pressure, diastolic [1, 7]: -18 % of the initial
- Variation of arterial pressure, systolic [1, 7]: -7 % of the initial
- reduction of diastolic pressure [1, 8]: 23.5%
- reduction of systolic pressure [1, 8]: 17.6%
- Variation of arterial pressure, diastolic [1, 9]: -23 % of the initial
- Variation of arterial pressure, systolic [1, 9]: -17 % of the initial
- Variation of arterial pressure, diastolic [1, 10]: -28 % of the initial
- Variation of arterial pressure, systolic [1, 10]: -12 % of the initial
- Variation of arterial pressure, diastolic [1, 11]: -26 % of the initial
- Variation of arterial pressure, systolic [1, 11]: -18 % of the initial
- Variation of arterial pressure, diastolic [1, 12]: -41 % of the initial
- Variation of arterial pressure, systolic [1, 12]: -21 % of the initial
- Variation of arterial pressure, diastolic [1, 13]: -19 % of the initial
- Variation of arterial pressure, systolic [1, 13]: -17 % of the initial
- reduction of diastolic pressure [1, 14]: 28.5%
- reduction of systolic pressure [1, 14]: 18.8%
- difference between systolic and diastolic pressures ([1]; see Table 1): increases the difference between systolic and diastolic pressures
- Variation of arterial pressure, systolic ([2]; 50 mg/kg per os, 4 hours): -3 % of the initial
- Variation of arterial pressure, diastolic ([2]; 75 mg/kg per os, 1 hour): -17 % of the initial
- Variation of arterial pressure, systolic ([2]; 75 mg/kg per os, 1 hour): -10 % of the initial
- Variation of arterial pressure, diastolic ([2]; 75 mg/kg per os, 2 hours): -18 % of the initial
- superiority in duration of action over nifedipine ([2]; 75 mg/kg per os, vs nifedipine): at least 3 times
- Variation of arterial pressure, diastolic ([2]; 100 mg/kg per os, 1 hour): -8 % of the initial
- Variation of arterial pressure, systolic ([2]; 100 mg/kg per os, 1 hour): -7 % of the initial
- Variation of arterial pressure, diastolic ([2]; 100 mg/kg per os, 24 hours): -3 % of the initial
- Hemodynamic effect, Neoepinephrine ([3]; 10 mg/kg intravenously, neoepinephrine 0.2 μg/kg): -35%
- Hemodynamic effect, Noradrenaline ([3]; 0.5-3.0 mg/kg intravenously, noradrenaline 1 μg/kg): -10%
- blocking of α- and β-receptors and the cholinergic system ([3]; higher doses (10 mg/kg)): substantially blocks both α- and β-receptors, as well as the cholinergic system
- direct influence on effects of angiotensin and histamine ([3]; higher doses (10 mg/kg)): does not provide any direct influence on effects of angiotensin and histamine
